Columns and labels:
[1] = Polypeptide conformation by CD spectroscopy (α-helix content); type: physicochemical; conditions: in the presence of 100 mM NaCl, 25° C.
Method: The library of sets of Example 1 was examined for the ability of each set to adopt an α-helical conformation. […] In the presence of 100 mM NaCl, the percent of α-helices varied from 20 to 40 percent.
All measurements were carried out on a Jasco J-720 circular dichroism spectropolarimeter (CD-Eaton, Md.), in conjunction with a Neslab RTE 110 waterbath and temperature controller at 25° C. (Dublin, Calif.). CD spectra were the average of a series of three to seven scans made at 0.2 nm intervals. Ellipticity was determined as means residue ellipticity, θ; the limits of error of measurements at 222 nm were ±500 (deg cm2 dmol^-1). For salt induced aggregation, stock solutions were separately prepared with 150 μM polypeptide sets in buffer (5 mM MOPS-NaOH, 100 mM NaCl).

Staphylococcus aureus = conditions: no change in optical density over 18 hours; slightly different conditions; cited from earlier work
[2] = system: human red blood cells (RBCs); experiment: Hemolytic activity (HD50); type: cell-based; conditions: one hour at 37° C., OD 414 nm
Method: The hemolytic activities of the polypeptide mixture sets were determined by using human red blood cells (RBCs). The cells were washed three times with phosphate-buffered saline (PBS/35 mM phosphate buffer--0.15M NaCl, pH 7.0) and resuspended in PBS. The hemolytic activity of the polypeptide sets were determined as described in Blondelle et al., Biochem. Biophys. Acta, 1202:331-336 (1993) using 96 well tissue culture plates. In brief, 100 μl of 0.5 percent RBC solution were added to an equal volume of peptides in PBS. The plates were incubated for one hour at 37° C. and the optical density (OD) of the supernatant was measured at 414 nm. The concentration in peptide necessary to lyse 50 percent RBCs (HD50) was then determined for each peptide using a sigmoidal curve fitting method (Graphpad).

Melittin
percent of α-helices (helicity) [1]: about 20% | minimum inhibitory concentration (MIC) (Staphylococcus aureus): 25 µg/mL | HD50 (concentration necessary to lyse 50 percent RBCs) [2]: 6 µg/mL

From US5814470A, “Melittin-related polypeptides, mixture sets and libraries thereof” (priority 1997, dated 1998)
